Results as given in article PMC10099595, “Multimodal 4-arylchromene derivatives with microtubule-destabilizing, anti-angiogenic, and MYB-inhibitory activities” (Cancer Drug Resistance, 2023).
Where two headings read alike, the source gives them in different places.

Legend:
[1] = test system: HCT-116 colon carcinoma cells; assay: MTT antiproliferative assay, HCT-116; type: cell-based; conditions: Homo sapiens, 72 h
Text: (§1) The following cell lines were used: 518A2 melanoma (Department of Radiotherapy, Medical University of Vienna, Austria)[15], HeLa cervix carcinoma, KBV1^Vbl (ACC-149 cervix carcinoma, MCF7 [ACC-115]) breast carcinoma, U-87 glioblastoma, HT-29 (ACC-299), HCT-116 (ACC-581) and HCT-116p53-/- colon carcinoma, EA.hy926 (ATCC® CRL-2922^TM) endothelial hybrid cells, and HDFa (ATCC® PCS-201-012^TM) adult human dermal fibroblasts. […] Only mycoplasma-free cultures were used.

[2] = test system: HT-29 colon carcinoma cells; assay: MTT antiproliferative assay, HT-29; type: cell-based; conditions: Homo sapiens, 72 h
Text: as §1

[3] = test system: KB-V1^Vbl cervix carcinoma cells; assay: MTT antiproliferative assay, KB-V1Vbl (with or without verapamil); type: cell-based, human; conditions: for IC50: Homo sapiens, KB-V1/Vbl, MTT, 72 h, without verapamil, read-out: IC50 KB-V1^Vbl; for P-gp substrate / dependence on P-gp: inferred from KB-V1^Vbl cells with and without verapamil; for fold lower IC50 values combined with verapamil: KB-V1^Vbl cells, verapamil 1 µM vs none
Text: as §1

518A2 melanoma cells [4] = assay: MTT antiproliferative assay, 518A2; type: cell-based; conditions: Homo sapiens, 72 h
Text: as §1

[5] = test system: HeLa cervix carcinoma cells; assay: MTT antiproliferative assay, HeLa; type: cell-based; conditions: Homo sapiens, 72 h
Text: as §1

[6] = test system: MCF-7 breast carcinoma cells; assay: MTT antiproliferative assay, MCF-7; type: cell-based; conditions: Homo sapiens, MCF7, 72 h
Text: as §1

[7] = test system: tested cancer and hybrid cell lines; assay: MTT assay, average over all tested cancer and hybrid cell lines
Description: An 3-(4, 5-dimethylthiazol-2-yl)-2, 5-diphenyl tetrazolium bromid (MTT) assay was used for antiproliferative studies. Cancer cells (5 × 10^4 cells/mL, 100 μL/well) were placed in 96-well plates (10 × 10^4 cells/mL for HDFA and U87 cells), and the cells were incubated for 24 h at 5% CO2 and 95% humidity. Then, cells were treated with test compounds (at various concentrations) or solely with DMSO as a negative control for 72 h. Then, 12.5 μL of a 0.5% MTT solution in phosphate-buffered saline (PBS) was added to the cells, followed by incubation for 2 h at 37 °C. After centrifugation of the plates (300 × g, 5 min, 4 °C), the medium was discarded, and 25 μL of DMSO containing 10% SDS and 0.6% acetic acid was added, followed by incubation at 37 °C for at least 1 h. Formazan absorbance at λ = 570 nm was measured using a Tecan infinite F200 microplate reader and corrected for the background (λ = 630 nm). The 50% inhibitory concentration (IC50) values were calculated from dose-response curves (means ± SD, four independent experiments) compared to DMSO-treated control cells, which were set to 100%. GraphPad Prism 9 was used for curve-fitting.
The selectivity index (SI) was calculated as a measure of selectivity toward cancer cells compared to non-malignant cells.

[8] = test system: EA.hy926 endothelial hybrid cells; assay: MTT antiproliferative assay, EA.hy926; type: cell-based; conditions: Homo sapiens, EA.hy 926, 72 h
Text: as §1

[9] = test system: HCT-116 p53-/- colon carcinoma cells; assay: MTT antiproliferative assay, HCT-116 p53-/-; type: cell-based; conditions: Homo sapiens, 72 h
Text: as §1

U-87 glioblastoma cells = assay: MTT antiproliferative assay, U87; type: cell-based; conditions: Homo sapiens, 72 h
Text: as §1

MYB = biological target: T1, MYB (Homo sapiens, UniProt P10242, K503R/K527R); assay: Luciferase-dependent MYB activity assay (HEK-MYB-Luc reporter cells); type: cell-based; conditions: HEK-293 reporter cells, 16 h; read-out: IC50 inhibition of MYB activity
T1 construct: expressed in transfected cells; host or cells: HEK-293 (HEK-MYB-Luc reporter cell line)
Description: Compounds were tested using the HEK-MYB-Luc reporter cell line, which allows a doxycycline-dependent induction of MYB expression and harbors an MYB-dependent luciferase reporter plasmid, as previously described. After 16 h of substance treatment (0.0001-3 µM), luciferase activities were analyzed as described.

[10] = test system: HDFa adult human dermal fibroblasts; assay: MTT cytotoxicity assay, non-malignant HDFa; type: cell-based; conditions: 72 h, non-malignant cells
Text: as §1

zebrafish larvae = assay: Zebrafish angiogenesis assay (SIV area); type: in vivo; conditions: zebrafish larvae 24 hpf, 48 h treatment, 50-1000 nM
Description: Transgenic zebrafish (Tg(fli1:EGFP, casper mutant) were bred at 28 °C.[16] After fertilization, the eggs were transferred to E3-medium (5 mm NaCl, 0.17 mm KCl, 0.33 mm CaCl, 0.33 mm MgSO4, 0.01% methylene blue, pH 7.2), followed by incubation for 24 h. The chorion was manually removed, and the larvae were treated with test compounds or solvent in six-well plates (30 fish per concentration, 5 mL/well) for 48 h. The fluorescent vasculature was documented with a Leica MZ10F and Zeiss AxioCam MRrc. To quantify the angiogenesis, the sub-intestinal vein (SIV) area was measured using ImageJ and expressed as means ± SD with the control set to 100%. The significance of SIV reduction through substance treatment was assessed using one-way analysis of variance (ANOVA), *P < 0.05; **P < 0.01; ***P < 0.001; ****P < 0.0001, with Dunnett´s multiple comparison test (GraphPad Prism 9).

518A2 melanoma cells [11] = assay: Cell-cycle analysis (FACS, propidium iodide); type: cell-based, human; conditions: 518A2 cells, 25 nM, 24 h
Description: 518A2 melanoma cells (10 × 10^4 cells/mL, 3 mL/well) were cultivated in six-well plates for 24 h. After the treatment with test compounds (10 and 25 nm), C-A4 (10 and 25 nm), or DMSO (vehicle) for an additional 24 h, the cells were trypsinized, centrifuged (300 × g, 5 min, 4 °C), and fixed in 70% EtOH for min. 24 h. For FACS measurement, cells were washed in PBS and stained with propidium iodide solution (50 µg/mL PI, 50 µg/mL RNase A in 0.1% sodium citrate) for 30 min at 37 °C. The DNA content of at least 10000 single cells was determined using a Beckmann Coulter Cytomics FC500 flow cytometer (λex = 488 nm, λem = 570 nm). CXP software (Beckman Coulter) was used to analyze the cells in the cell cycle phases (sub-G1, G1, S, G2/M).

[12] = Homo sapiens, read-out: Average IC50 value of the tested cancer and hybrid cell lines (Ø IC50), average of all cell lines of Table 2

T1 sequence (P10242 whole entry K503R/K527R): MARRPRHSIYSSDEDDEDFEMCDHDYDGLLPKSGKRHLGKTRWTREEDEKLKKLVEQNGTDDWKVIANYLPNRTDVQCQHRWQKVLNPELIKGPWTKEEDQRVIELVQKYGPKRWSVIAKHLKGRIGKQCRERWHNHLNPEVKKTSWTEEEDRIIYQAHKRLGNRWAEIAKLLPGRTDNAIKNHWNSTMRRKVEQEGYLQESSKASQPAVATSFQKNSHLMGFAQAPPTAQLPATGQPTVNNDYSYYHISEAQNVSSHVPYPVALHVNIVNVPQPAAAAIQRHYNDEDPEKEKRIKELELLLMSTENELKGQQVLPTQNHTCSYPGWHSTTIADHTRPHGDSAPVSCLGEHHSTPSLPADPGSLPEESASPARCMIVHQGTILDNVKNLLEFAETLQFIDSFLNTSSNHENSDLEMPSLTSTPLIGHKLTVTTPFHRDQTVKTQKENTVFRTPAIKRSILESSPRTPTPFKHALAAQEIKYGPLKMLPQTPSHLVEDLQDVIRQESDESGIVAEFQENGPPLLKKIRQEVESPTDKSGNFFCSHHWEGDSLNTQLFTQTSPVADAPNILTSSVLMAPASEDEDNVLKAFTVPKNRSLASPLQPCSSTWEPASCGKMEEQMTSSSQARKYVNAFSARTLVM

Structure (SMILES)	IC50 [1] [nM]	IC50 [2] [nM]	IC50 [3] [nM]	P-gp substrate / dependence on P-gp [3]	IC50 (518A2 melanoma cells [4]) [nM]	IC50 [5] [nM]	IC50 [6] [nM]	IC50 [7, 12] [nM]	IC50 [8] [nM]	IC50 [9] [nM]	IC50 (U-87 glioblastoma cells) [nM]	IC50 (MYB) [nM]	fold lower IC50 values combined with verapamil [3] [fold]	IC50 [10] [nM]	effect on SIV growth (angiogenesis) (zebrafish larvae)	G2/M cell-cycle arrest (in words) (518A2 melanoma cells [11])	IC50 ([7]; read-out: Average IC50 value of the tested cancer and hybrid cell lines (Ø IC50), average of all cell lines of Table 2) [nM]
COc1ccc2c(c1)OC(N)=C(C#N)C2c1cc(F)cc(F)c1 (stereo not shown) [2O]	1400 ± 50	70 ± 8	20 ± 2	no dependence on P-gp	60 ± 6	40 ± 4	400 ± 60	203	40 ± 1	40 ± 3	100 ± 10	–	–	–	–	–	–
COc1ccc2c(c1)OC(N)=C(C#N)C2c1ccc(Cl)c(Cl)c1 (stereo not shown) [2K, 2-Amino-3-cyano-4-(3’, 4’-dichlorophenyl)-7-methoxy-4H-chromene]	300 ± 10	1900 ± 100	1300 ± 100	–	600 ± 7	800 ± 70	1000 ± 50	> 500	600 ± 80	800 ± 20	8500 ± 300	–	–	–	–	–	–
COc1ccc2c(c1)OC(N)=C(C#N)C2c1cc(F)c(F)c(F)c1 (stereo not shown) [2P, 2-Amino-3-cyano-4-(3’, 4’, 5’-trifluorophenyl)-7-methoxy-4H-chromene]	300 ± 20	200 ± 5	–	no dependence on P-gp	300 ± 30	100 ± 20	400 ± 50	330	400 ± 40	300 ± 20	1100 ± 90	–	–	–	–	–	–
COc1ccc2c(c1)OC(N)=C(C#N)C2c1ccc(F)cc1F (stereo not shown) [2L, 2-Amino-3-cyano-4-(2’, 4’-difluorophenyl)-7-methoxy-4H-chromene]	2500 ± 40	500 ± 50	3800 ± 400	–	500 ± 30	1500 ± 70	> 50000	> 500	200 ± 10	1600 ± 160	5100 ± 500	–	–	–	–	–	–
COc1ccc2c(c1)OC(N)=C(C#N)C2c1cc(Br)c(OC)c(OC)c1 (stereo not shown) [2B]	100 ± 10	200 ± 20	10 ± 1	–	6 ± 0.2	2 ± 0.2	100 ± 8	49	0.8 ± 0.09	30 ± 3	80 ± 5	1.28 ± 0.3	14	> 50000	no SIV decrease	–	–
COc1ccc2c(c1)OC(N)=C(C#N)C2c1cc(Cl)c(OC)c(Cl)c1 (stereo not shown) [2D, 2-Amino-3-cyano-4-(3’, 5’-dichloro-4’-methoxyphenyl)-7-methoxy-4H-chromene]	2500 ± 200	1400 ± 100	2100 ± 100	–	2100 ± 200	700 ± 50	2400 ± 300	> 500	1100 ± 70	1900 ± 200	3900 ± 400	–	–	–	–	only a slight increase in G2/M phase cells	–
COc1ccc2c(c1)OC(N)=C(C#N)C2c1ccc(F)c(F)c1 (stereo not shown) [2I, 2-Amino-3-cyano-4-(3’, 4’-difluorophenyl)-7-methoxy-4H-chromene]	800 ± 6	800 ± 30	700 ± 30	–	700 ± 5	600 ± 30	700 ± 100	–	700 ± 10	600 ± 6	3600 ± 500	–	12	–	–	–	–
COc1ccc2c(c1)OC(N)=C(C#N)C2c1ccc(F)c(Cl)c1 (stereo not shown) [2J, 2-Amino-3-cyano-4-(3’-chloro-4’-fluorophenyl)-7-methoxy-4H-chromene]	300 ± 30	500 ± 50	300 ± 20	substrate of P-gp	400 ± 10	100 ± 6	150 ± 20	396	400 ± 20	400 ± 40	1200 ± 70	–	–	–	–	–	> 500
COc1ccc2c(c1)OC(N)=C(C#N)C2c1cc(I)c(OC)c(OC)c1 (stereo not shown) [2C, 2-Amino-3-cyano-4-(3’-iodo-4’, 5’-dimethoxyphenyl)-7-methoxy-4H-chromene]	70 ± 1	200 ± 20	60 ± 5	–	20 ± 2	10 ± 0.9	20 ± 1	47	60 ± 5	6 ± 0.7	25 ± 2	1.56 ± 0.2	20	> 50000	no SIV decrease	–	–
COc1ccc2c(c1)OC(N)=C(C#N)C2c1cccc(F)c1F (stereo not shown) [2M, 2-Amino-3-cyano-4-(2’, 3’-difluorophenyl)-7-methoxy-4H-chromene]	500 ± 50	200 ± 20	900 ± 90	P-gp substrates	300 ± 10	90 ± 2	200 ± 30	330	400 ± 10	200 ± 8	400 ± 60	–	–	–	–	–	–
COc1ccc2c(c1)OC(N)=C(C#N)C2c1cccc(S(F)(F)(F)(F)F)c1 (stereo not shown) [2Q, 2-Amino-3-cyano-4-(3’-pentafluorothiophenyl)-7-methoxy-4H-chromene]	700 ± 40	400 ± 30	1900 ± 100	–	300 ± 10	400 ± 4	800 ± 30	> 500	600 ± 20	2900 ± 10	900 ± 60	–	–	–	–	–	–
COc1ccc2c(c1)OC(N)=C(C#N)C2c1ccccc1F (stereo not shown) [2G, 2-Amino-3-cyano-4-(2’-fluorophenyl)-7-methoxy-4H-chromene]	200 ± 20	200 ± 10	700 ± 20	–	700 ± 40	400 ± 60	500 ± 40	> 500	900 ± 90	300 ± 40	3200 ± 100	–	–	–	–	–	–
COc1ccc2c(c1)OC(N)=C(C#N)C2c1cccc([N+](=O)[O-])c1 (stereo not shown) [2R]	300 ± 30	200 ± 20	30 ± 0.4	–	30 ± 2	300 ± 20	10 ± 0.8	227	300 ± 9	200 ± 20	900 ± 50	–	–	–	–	–	–
COc1ccc2c(c1)OC(N)=C(C#N)C2c1cc(F)ccc1F (stereo not shown) [2N, 2-Amino-3-cyano-4-(2’, 5’-difluorophenyl)-7-methoxy-4H-chromene]	500 ± 50	400 ± 30	700 ± 70	P-gp substrates	90 ± 60	200 ± 20	300 ± 7	> 500	4700 ± 900	200 ± 10	500 ± 100	–	–	–	–	–	–
